Key:
[1] = tested on: AMPK; experiment: AMPK activation effect (AMPK [pT172] ELISA) in MCF7 cells; assay type: cell-based, human; conditions: 24 hours; for AMPK activation effect (%) 10 μM / AMPK activation effect (%) 50 μM / AMPK activation effect (%) 5 μM: AMPKα Thr172 phosphorylation relative to untreated cells; for AC150: concentration at which AMPK activation reached 150%
How it was run: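 MCF7 cells in DMEM/10% FBS were treated 24 h with compounds at 5, 10 and 50 uM. Lysates (20 μg protein) were assayed by ELISA for AMPKα Thr172 phosphorylation as the activation read-out.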

[2] = tested on: HCT116 cells; experiment: Effect of inhibiting cancer cell proliferation (MTT) in HCT116 cells; assay type: cell-based, human; conditions: Homo sapiens, HCT-116, 48 h; for inhibition at 100 µM: read-out: Cell growth inhibition (%) at 100 μM; for inhibition at 25 µM: read-out: Cell growth inhibition (%) at 25 μM
How it was run: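 HCT116 colorectal cells (about 5,000 per well, DMEM with 10% FBS) treated with 100, 25, 6.25, 1.56 or 0.39 μM compound for 48 h. MTT added for 3 h, formazan read at 560 nm; GIC50 taken from viability relative to untreated cells.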

GI50 [2] [µM]	SMILES	AMPK activation effect (%) 10 μM [1] [%]	AMPK activation effect (%) 50 μM [1] [%]	AC150 [1] [µM]	inhibition at 100 µM [2] [%]	AMPK activation effect (%) 5 μM ([1]; hydrochloride) [%]	AMPK activation effect (%) 10 μM ([1]; hydrochloride) [%]	AC150 ([1]; hydrochloride) [µM]	inhibition at 25 µM [2] [%]	AMPK activation effect (%) 5 μM [1] [%]
77.1	Cl.N=C(NCc1ccc(C(F)(F)F)cc1)NC(=N)N1CC=CC1 [Example 13, N1-1,2-dihydropyrrole-N5-(4-trifluoromethyl)benzyl biguanide hydrochloride]	135	462	9.0	57.8	–	–	–	–	–
> 100	Cl.N=C(NC(=N)N1CC=CC1)Nc1ccccc1 [Example 44, N1-1,2-dihydropyrrole-N5-phenyl biguanide hydrochloride]	289	577	1.7	27.8	–	–	–	–	–
3	Cl.N=C(NC(=N)N1CC=CCC1)Nc1ccc(OC(F)(F)F)c(Cl)c1 [Example 11, N1-1,2,3,6-tetrahydropyridine-N5-(3-chloro,4-trifluoromethoxy) phenyl biguanide hydrochloride]	637	–	1.4	98	–	–	–	–	–
26.9	Cl.N=C(NCc1cccc(C(F)(F)F)c1)NC(=N)N1CC=CCC1 [Example 57, N1-1,2,3,6-tetrahydropyridine-N5-(3-trifluoromethyl)benzyl biguanide hydrochloride]	279	579	2.7	97.8	–	–	–	–	–
5.7	CC1CCCN(C(=N)NC(=N)Nc2ccc(F)c(C(F)(F)F)c2)C1.Cl (centres unmarked) [Example 71, N1-(3-methyl)piperidine-N5-(4-fluoro, 3-trifluoromethyl)phenyl biguanide hydrochloride]	–	–	–	–	259	430	1.6	100	–
> 100	Cl.N=C(NC(=N)N1CC=CC1)Nc1ccc(F)cc1 [Example 7, N1-1,2-dihydropyrrole-N5-(4-fluoro)phenyl biguanide hydrochloride]	94	109	>50	19.8	–	–	–	–	–
7.5	Cl.N=C(NC(=N)N1CC=CCC1)Nc1cccc(OC(F)(F)F)c1 [Example 30, N1-1,2,3,6-tetrahydropyridine-N5-(3-trifluoromethoxy)phenyl biguanide hydrochloride]	703	–	0.53	99.7	–	–	–	–	–
124	Cl.N=C(NC(=N)N1CC=CCC1)Nc1ccccc1 [Example 39, N1-1,2,3,6-tetrahydropyridine-N5-phenyl biguanide hydrochloride]	96	138	67.2	39.8	–	–	–	–	–
27.6	CC1CCCN(C(=N)NC(=N)NCc2ccc(C(F)(F)F)cc2)C1.Cl (centres unmarked) [Example 86, N1-(3-methyl)piperidine-N5-(4-trifluoromethyl)benzyl biguanide hydrochloride]	330	–	2.3	–	–	–	–	49	147
9.4	CC1CCCCN1C(=N)NC(=N)Nc1cccc(C(F)(F)F)c1.Cl (centres unmarked) [Example 79, N1-(2-methyl)piperidine-N5-(3-trifluoromethyl)phenyl biguanide hydrochloride]	515	–	1.9	–	–	–	–	98.9	177
10	CC1CCCN(C(=N)NC(=N)Nc2ccc(Cl)cc2)C1.Cl (centres unmarked) [Example 87, N1-(3-methyl)piperidine-N5-(4-chloro)phenyl biguanide hydrochloride]	297	–	1.9	–	–	–	–	100	219

— US9884821B2, “N1-cyclic amine-N5-substituted biguanide derivatives, methods of preparing the same and pharmaceutical composition comprising the same” (IMMUNOMET THERAPEUTICS INC., priority 2013, dated 2018)
